Measurements published in patent US20260325540A1 (priority 2023, published 2026).

biological target: HCoV-229E 3CL protease (Human coronavirus 229E, UniProt P0C6U2); assay: FRET based protease assay, HCoV-229E 3CL; type: biochemical; conditions: 229E IC50, 6 nM H229E-CoV Chis-3CLpro, 6 μM peptide 1 substrate, 25° C., 1.5 hrs, pH 7.5
Sequence (P0C6U2 2966-3267): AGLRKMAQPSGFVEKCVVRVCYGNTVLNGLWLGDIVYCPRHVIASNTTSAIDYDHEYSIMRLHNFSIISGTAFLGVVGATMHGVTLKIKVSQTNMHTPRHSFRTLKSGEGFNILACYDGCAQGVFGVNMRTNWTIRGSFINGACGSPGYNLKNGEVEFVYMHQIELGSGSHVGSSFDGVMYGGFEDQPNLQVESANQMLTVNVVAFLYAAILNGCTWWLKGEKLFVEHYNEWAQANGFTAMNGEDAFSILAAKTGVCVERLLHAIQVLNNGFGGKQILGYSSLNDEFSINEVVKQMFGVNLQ

Structure (SMILES) | IC50 [nM]
CC1(C)[C@@H]2[C@H]3C(=O)N[C@H](C#N)C[C@@H]4C(=O)NC[C@@H]4CCCC[C@H](NC(=O)CC4CC(F)(F)C4)C(=O)N3C[C@@H]21 [Example 89] | < 100
N#C[C@@H]1C[C@@H]2C(=O)NC[C@@H]2/C=C/CC[C@H](NC(=O)C(F)(F)F)C(=O)N2C[C@@H]3CCC[C@@H]3[C@H]2C(=O)N1 [Example 101] | < 100
CC(C)C[C@@H]1NC(=O)CCCCCC[C@@H]2CNC(=O)[C@@H]2C[C@@H](C=O)NC1=O [Example 46] | 100 to 1000
CC(C)C[C@@H]1NC(=O)[C@@H](C2CCCC2)CCC[C@H]2CNC(=O)[C@@H]2C[C@@H](C#N)NC1=O [Example 28] | 1000 to 20000
CC(C)C[C@@H]1NC(=O)CCCC[C@H]2CNC(=O)[C@@H]2C[C@@H](C=O)NC1=O [Example 4] | < 100
CC1(C)[C@@H]2[C@H]3C(=O)N[C@H](C#N)C[C@@H]4C(=O)NCC[C@@H]4CCCC[C@H](NC(=O)c4ccc(F)cc4F)C(=O)N3C[C@@H]21 [Example 129] | < 100
CC(C)(C)CC(=O)N[C@H]1CCCC[C@H]2CCNC(=O)[C@H]2C[C@@H](C#N)NC(=O)[C@@H]2[C@H]3CCC[C@H]3CN2C1=O [Example 95] | < 100
CC(C)(C)OC(=O)N[C@H]1CCCC[C@H]2CCNC(=O)[C@H]2C[C@@H](C#N)NC(=O)[C@@H]2[C@@H]3[C@H](CN2C1=O)C3(C)C [Example 110] | < 100
N#C[C@@H]1C[C@@H]2C(=O)NC[C@@H]2CCCC[C@H](Nc2nccc(C(F)(F)F)n2)C(=O)N2C[C@@H]3CCC[C@@H]3[C@H]2C(=O)N1 [Example 165] | 100 to 1000
N#C[C@@H]1C[C@H]2C(=O)NC[C@@H]2CCCCC(=O)N2C[C@@H]3CCC[C@@H]3[C@H]2C(=O)N1 [Example 26] | 1000 to 20000
CC(C)C[C@@H]1NC(=O)C(OC2CCCCC2)CCC[C@H]2CNC(=O)[C@@H]2C[C@@H](C#N)NC1=O (stereo partly drawn) [Example 23] | > 20000
CC1(C)[C@@H]2[C@H]3C(=O)N[C@H](C#N)C[C@@H]4C(=O)NC[C@@H]4CCCC[C@H](NS(=O)(=O)c4ccc(F)cc4F)C(=O)N3C[C@@H]21 [Example 157] | < 100
CC(C)(C)OC(=O)N[C@H]1CC/C=C/[C@H]2CNC(=O)[C@H]2C[C@@H](C#N)NC(=O)[C@@H]2[C@@H]3[C@H](CN2C1=O)C3(C)C [Example 92] | < 100
CC(C)(C)C(=O)N[C@H]1CC/C=C/[C@H]2CNC(=O)[C@H]2C[C@@H](C#N)NC(=O)[C@@H]2[C@@H]3[C@H](CN2C1=O)C3(C)C [Example 61] | < 100
CC1(C)[C@@H]2[C@H]3C(=O)N[C@H](C#N)C[C@@H]4C(=O)NC[C@@H]4CCCC[C@H](NS(=O)(=O)c4ccccc4)C(=O)N3C[C@@H]21 [Example 154] | < 100
CC1(C)[C@@H]2[C@H]3C(=O)N[C@H](C#N)C[C@@H]4C(=O)NC[C@@H]4CCCC[C@H](Nc4cc(C(F)(F)F)ncn4)C(=O)N3C[C@@H]21 [Example 163] | < 100
CC(C)C[C@H]1C(=O)N[C@H](C#N)C[C@@H]2C(=O)NC[C@@H]2CCCC[C@H](NC(=O)C(C)(C)C)C(=O)N1C [Example 57] | 100 to 1000
CC(C)C[C@@H]1NC(=O)[C@@H](Cc2ccccc2)CCC[C@@H]2CNC(=O)[C@@H]2C[C@@H](C=O)NC1=O [Example 9] | 100 to 1000
CC(C)C[C@@H]1NC(=O)CCCC[C@H]2CNC(=O)[C@H]2C[C@@H](C=O)NC1=O [Example 2] | 1000 to 20000

Structure (SMILES) | IC50 [nM]
CC(C)C[C@@H]1NC(=O)[C@@H](OC(C)(C)C)CCC[C@H]2CNC(=O)[C@@H]2C[C@@H](C=O)NC1=O [Example 20] | 1000 to 20000
CC(C)C[C@@H]1NC(=O)[C@@H](NC(=O)C(C)(C)C)CCCC[C@H]2CNC(=O)[C@@H]2C[C@@H](C#N)NC1=O [Example 54] | 1000 to 20000
CC(C)(C)OC(=O)N[C@H]1CCCC[C@H]2CNC(=O)[C@H]2C[C@@H](C#N)NC(=O)[C@@H]2[C@@H]3[C@H](CN2C1=O)C3(C)C [Example 72] | < 100
CC1(C)[C@@H]2[C@H]3C(=O)N[C@H](C#N)C[C@@H]4C(=O)NC[C@@H]4CCCC[C@H](Nc4nccc(C(F)(F)F)n4)C(=O)N3C[C@@H]21 [Example 162] | < 100
CC(C)(C)OC(=O)N[C@H]1CCCC[C@H]2CNC(=O)[C@H]2C[C@@H](C#N)NC(=O)[C@@H]2CC3(CCN2C1=O)CC3 [Example 132] | < 100
CC1(C)[C@@H]2[C@H]3C(=O)N[C@H](C#N)C[C@@H]4C(=O)NC[C@@H]4CCCC[C@H](NC(=O)OC4CCCC4)C(=O)N3C[C@@H]21 [Example 75] | < 100
CN1C[C@@H]2CCCC[C@H](NC(=O)OC(C)(C)C)C(=O)N3C[C@H]4[C@@H]([C@H]3C(=O)N[C@H](C#N)C[C@@H]2C1=O)C4(C)C [Example 140] | 1000 to 20000
CC1(C)[C@@H]2[C@H]3C(=O)N[C@H](C#N)C[C@@H]4C(=O)NC[C@@H]4CCCC[C@H](NC(=O)C(F)(F)F)C(=O)N3C[C@@H]21 [Example 87] | < 100
CC(C)C[C@@H]1NC(=O)[C@@H](C2CCCC2)CCC[C@@H]2CNC(=O)[C@@H]2C[C@@H](C=O)NC1=O [Example 14] | 100 to 1000
N#C[C@@H]1C[C@@H]2C(=O)NC[C@@H]2CCCC[C@H](NS(=O)(=O)c2ccc(F)cc2F)C(=O)N2C[C@@H]3CCC[C@@H]3[C@H]2C(=O)N1 [Example 155] | < 100
CC1(C)[C@@H]2[C@H]3C(=O)N[C@H](C#N)C[C@@H]4C(=O)NC[C@@H]4CCCC[C@H](NC(=O)C4CC(F)(F)C4)C(=O)N3C[C@@H]21 [Example 62] | < 100
CC(C)C[C@@H]1NC(=O)[C@@H](Cc2ccccc2)CCC[C@H]2CNC(=O)[C@@H]2C[C@@H](C=O)NC1=O [Example 10] | 1000 to 20000
CC1(C)[C@@H]2[C@H]3C(=O)N[C@H](C#N)C[C@@H]4C(=O)NC[C@@H]4CCCC[C@H](NS(=O)(=O)C4(C)CC4)C(=O)N3C[C@@H]21 [Example 159] | < 100
CC(C)C[C@@H]1NC(=O)[C@@H](NC(=O)OC(C)(C)C)CCC[C@H]2CNC(=O)[C@@H]2C[C@@H](C=O)NC1=O [Example 19] | < 100
CCO[C@@H]1C[C@H]2C(=O)N[C@H](C#N)C[C@@H]3C(=O)NC[C@@H]3CCCC[C@H](NC(=O)OC(C)(C)C)C(=O)N2C1 [Example 144] | 100 to 1000
Cc1cc(C(=O)N[C@H]2CCCC[C@H]3CNC(=O)[C@H]3C[C@@H](C#N)NC(=O)[C@@H]3[C@@H]4[C@H](CN3C2=O)C4(C)C)on1 [Example 109] | < 100
CC(C)C[C@@H]1NC(=O)[C@@H](OC(C)(C)C)CCC[C@H]2CNC(=O)[C@@H]2C[C@@H](C#N)NC1=O [Example 29] | > 20000
CC1(C)[C@@H]2[C@H]3C(=O)N[C@H](C#N)C[C@@H]4C(=O)NC[C@@H]4CCCC[C@H](NC(=O)c4ccc(F)cc4C(F)(F)F)C(=O)N3C[C@@H]21 [Example 139] | < 100
N#C[C@@H]1C[C@@H]2C(=O)NC[C@@H]2CCCC[C@H](NC(=O)OC2CCCC2)C(=O)N2C[C@@H]3CCC[C@@H]3[C@H]2C(=O)N1 [Example 94] | < 100

Structure (SMILES) | IC50 [nM]
CC(C)(C)NC(=O)[C@H]1CCCC[C@H]2CNC(=O)[C@H]2C[C@@H](C#N)NC(=O)[C@@H]2[C@@H]3[C@H](CN2C1=O)C3(C)C [Example 167] | 100 to 1000
CC(C)C[C@@H]1NC(=O)[C@@H](Cc2ccccc2)CCCC[C@@H]2CNC(=O)[C@@H]2C[C@@H](C=O)NC1=O [Example 35] | 1000 to 20000
CC(C)(C)OC(=O)N[C@H]1CCCC[C@H]2CNC(=O)[C@H]2C[C@@H](C#N)NC(=O)[C@H](CC2CCCC2)NC1=O [Example 137] | < 100
CC(C)C[C@@H]1NC(=O)CCCCCC[C@H]2CNC(=O)[C@@H]2C[C@@H](C=O)NC1=O [Example 48] | < 100
CC(C)C[C@@H]1NC(=O)CCCCC[C@H]2CCNC(=O)[C@@H]2C[C@@H](C=O)NC1=O [Example 34] | 100 to 1000
N#C[C@@H]1C[C@@H]2C(=O)NCC[C@@H]2CCCC[C@H](NC(=O)OC2CCCC2)C(=O)N2C[C@@H]3CCC[C@@H]3[C@H]2C(=O)N1 [Example 93] | < 100
CC1(C(=O)N[C@H]2CCCC[C@H]3CNC(=O)[C@H]3C[C@@H](C#N)NC(=O)[C@@H]3[C@@H]4[C@H](CN3C2=O)C4(C)C)COC1 [Example 123] | < 100
CC1(C)[C@@H]2[C@H]3C(=O)N[C@H](C#N)C[C@@H]4C(=O)NC[C@@H]4CCCC[C@H](NC(=O)C4(C(F)(F)F)CC4)C(=O)N3C[C@@H]21 [Example 117] | < 100
CC1(C)[C@@H]2[C@H]3C(=O)N[C@H](C#N)C[C@@H]4C(=O)NC[C@@H]4CCCC[C@H](NC(=O)c4ccc(F)cc4F)C(=O)N3C[C@@H]21 [Example 103] | < 100
CC(C)(C)C(=O)N[C@H]1CCCC[C@H]2CNC(=O)[C@H]2C[C@@H](C#N)NC(=O)[C@@H]2CCCN2C1=O [Example 74] | 1000 to 20000
CC(C)C[C@@H]1NC(=O)[C@H](Cc2ccccc2)CCC[C@@H]2CNC(=O)[C@@H]2C[C@@H](C=O)NC1=O [Example 11] | 100 to 1000
CC(C)(C)OC(=O)N[C@H]1CC/C=C\[C@H]2CCNC(=O)[C@H]2CC(C#N)NC(=O)[C@@H]2[C@H]3CCC[C@H]3CN2C1=O (stereo partly drawn) [Example 97] | < 100
CC1(C)[C@@H]2[C@H]3C(=O)N[C@H](C#N)C[C@@H]4C(=O)NC[C@@H]4CCCC[C@H](NS(=O)(=O)C4CCC4)C(=O)N3C[C@@H]21 [Example 160] | < 100
CC(C)(C)C[C@@H]1NC(=O)[C@@H](NC(=O)C(C)(C)C)CCCC[C@H]2CNC(=O)[C@H]2C[C@@H](C#N)NC1=O [Example 53] | < 100
CC(C)C[C@@H]1NC(=O)[C@@H](Cc2ccc(F)cc2)CCCC[C@@H]2CNC(=O)[C@@H]2C[C@@H](C#N)NC1=O [Example 42] | 100 to 1000
CC1(C)[C@@H]2[C@H]3C(=O)N[C@H](C#N)C[C@@H]4C(=O)NC[C@@H]4CCCC[C@H](N)C(=O)N3C[C@@H]21 [Example 161] | < 100
CC(C)C[C@@H]1NC(=O)[C@H](Cc2ccccc2)CCC[C@H]2CNC(=O)[C@@H]2C[C@@H](C=O)NC1=O [Example 21] | < 100
CC1(C)[C@@H]2[C@H]3C(=O)N[C@H](C#N)C[C@@H]4C(=O)NCC[C@@H]4CCCC[C@H](NC(=O)C45CC(C(F)(F)F)(C4)C5)C(=O)N3C[C@@H]21 [Example 135] | 100 to 1000
CC(C)(C)OC(=O)N[C@H]1CCCC[C@H]2CNC(=O)[C@H]2C[C@@H](C#N)NC(=O)[C@H]2N(CC(F)(F)C2(C)C)C1=O [Example 146] | 100 to 1000
